In paper PMC10141580, “Cyclic Dichalcogenides Extend the Reach of Bioreductive Prodrugs to Harness Thiol/Disulfide Oxidoreductases: Applications to seco-Duocarmycins Targeting the Thioredoxin System” (ACS Central Science, 2023):
Read-outs that look alike come from different tables or passages of the source.

Assays:
HeLa-HRE cells = test: Resazurin cytotoxicity assay, HeLa-HRE, 48 h
Description: We used A549 lung cancer and HeLa cervical cancer cell lines for initial screening of the prodrugs.
HeLa-HRE cells were treated with prodrugs of the
Dose -response curves were calculated from at least 27 incremental single concentrations over a
range of at least three log units.

[1] = system: NCI-60 standardized human tumor cell line panel; test: cells; type: cell-based; settings: for NCI-60 screening: Log(GI50): log10 of GI50 in M; for NCI-60 screening: Log(RedIndex): log10 reductive index vs P-CC60

In the case of `COc1cc2cc(C(=O)N3CC(CCl)c4c3cc(OC(=O)N3CCN(C)C5CSSCC53)c3ccccc43)[nH]c2c(OC)c1OC` (mixture of isomers) [Me-SS66T-CBI-TMI], the “IC50(HeLa)/IC50(A549)” value (HeLa-HRE cells; ratio HeLa vs A549) is reported as 10, the IC50 (HeLa-HRE cells; read-out: IC50(nM): HeLa, HeLa, 48 h) is reported as 59 nM and the “NCI-60 screening: Log(GI50)” value ([1]; 786-0 (RE) cell line) is reported as -7.79. The “NCI-60 screening: Log(RedIndex)” value ([1]; 786-0 (RE) cell line) was 2.03, the GI50 ([1]; 786-0 (RE) cell line, read-out: NCI-60 screening: Raw GI50) was 16 nM and the GI50 ([1]; 786-0, read-out: GI50) was 16 nM. The “NCI-60 screening: Log(GI50)” value ([1]; A498 (RE) cell line) was -6.9, the “NCI-60 screening: Log(RedIndex)” value ([1]; A498 (RE) cell line) was 1.34 and the GI50 ([1]; A498 (RE) cell line, read-out: NCI-60 screening: Raw GI50) was 130 nM. For the same molecule, the GI50 ([1]; A498, read-out: GI50) was 130 nM, the GI50 ([1]; A549/ATCC, read-out: GI50) was 12 nM and the “NCI-60 screening: Log(GI50)” value ([1]; ACHN (RE) cell line) was -8.02. For the same molecule, the “NCI-60 screening: Log(RedIndex)” value ([1]; ACHN (RE) cell line) was 1.71, the GI50 ([1]; ACHN (RE) cell line, read-out: NCI-60 screening: Raw GI50) was 9.5 nM and the GI50 ([1]; ACHN, read-out: GI50) was 9.5 nM. For the same molecule, the GI50 ([1]; BT-549, read-out: GI50) was 15 nM, the “NCI-60 screening: Log(GI50)” value ([1]; CAKI-1 (RE) cell line) was -7.56 and the “NCI-60 screening: Log(RedIndex)” value ([1]; CAKI-1 (RE) cell line) was 1.74. For the same molecule, the GI50 ([1]; CAKI-1 (RE) cell line, read-out: NCI-60 screening: Raw GI50) was 27 nM, the GI50 ([1]; CAKI-1, read-out: GI50) was 27 nM and the GI50 ([1]; CCRF-CEM, read-out: GI50) was 26 nM. The GI50 ([1]; COLO 205, read-out: GI50) was 49 nM, the “NCI-60 screening: Log(GI50)” value ([1]; DU-145 (PR) cell line) was -8.46 and the “NCI-60 screening: Log(RedIndex)” value ([1]; DU-145 (PR) cell line) was 2.12. For the same molecule, the GI50 ([1]; DU-145, read-out: GI50) was 3.5 nM, the GI50 ([1]; EKVX, read-out: GI50) was 18 nM and the GI50 ([1]; HCC-2998, read-out: GI50) was 15 nM. The GI50 ([1]; HCT-15, read-out: GI50) was 22 nM, the GI50 ([1]; HCT-116, read-out: GI50) was 18 nM and the GI50 ([1]; HL-60(TB), read-out: GI50) was 12 nM. For the same molecule, the GI50 ([1]; HOP-62, read-out: GI50) was 12 nM, the GI50 ([1]; HOP-92, read-out: GI50) was 27 nM and the GI50 ([1]; HT29, read-out: GI50) was 34 nM. For the same molecule, the “NCI-60 screening: Log(GI50)” value ([1]; IGROV1 (OV) cell line) was -7.23, the “NCI-60 screening: Log(RedIndex)” value ([1]; IGROV1 (OV) cell line) was 1.6 and the GI50 ([1]; IGROV1 (OV) cell line, read-out: NCI-60 screening: Raw GI50) was 58 nM. The GI50 ([1]; IGROV1, read-out: GI50) was 58 nM, the GI50 ([1]; K-562, read-out: GI50) was 25 nM and the GI50 ([1]; KM12, read-out: GI50) was 44 nM. The GI50 ([1]; LOX IMVI, read-out: GI50) was 12 nM, the GI50 ([1]; M14, read-out: GI50) was 10 nM and the GI50 ([1]; MALME-3M, read-out: GI50) was 14 nM. For the same molecule, the GI50 ([1]; MCF7, read-out: GI50) was 5.2 nM, the GI50 ([1]; MDA-MB-435, read-out: GI50) was 27 nM and the GI50 ([1]; MDA-MB-468, read-out: GI50) was 12 nM. For the same molecule, the GI50 ([1]; MOLT-4, read-out: GI50) was 9.9 nM, the GI50 ([1]; NCI-H23, read-out: GI50) was 9.5 nM and the GI50 ([1]; NCI-H226, read-out: GI50) was 95 nM. For the same molecule, the “NCI-60 screening: Log(GI50)” value ([1]; NCI-H460 (LC) cell line) was -8.32, the “NCI-60 screening: Log(RedIndex)” value ([1]; NCI-H460 (LC) cell line) was 2.03 and the GI50 ([1]; NCI-H460, read-out: GI50) was 4.8 nM. For the same molecule, the “NCI-60 screening: Log(GI50)” value ([1]; NCI-H522 (LC) cell line) was -7.91, the “NCI-60 screening: Log(RedIndex)” value ([1]; NCI-H522 (LC) cell line) was 2.14 and the GI50 ([1]; NCI-H522 (LC) cell line, read-out: NCI-60 screening: Raw GI50) was 12 nM. For the same molecule, the GI50 ([1]; NCI-H522, read-out: GI50) was 12 nM, the “NCI-60 screening: Log(GI50)” value ([1]; OVCAR-3 (OV) cell line) was -7.28 and the “NCI-60 screening: Log(RedIndex)” value ([1]; OVCAR-3 (OV) cell line) was 1.6. The GI50 ([1]; OVCAR-3, read-out: GI50) was 53 nM, the “NCI-60 screening: Log(GI50)” value ([1]; OVCAR-4 (OV) cell line) was -6.8 and the “NCI-60 screening: Log(RedIndex)” value ([1]; OVCAR-4 (OV) cell line) was 1.17. The GI50 ([1]; OVCAR-4 (OV) cell line, read-out: NCI-60 screening: Raw GI50) was 160 nM, the GI50 ([1]; OVCAR-4, read-out: GI50) was 160 nM and the “NCI-60 screening: Log(GI50)” value ([1]; OVCAR-5 (OV) cell line) was -7.44. The “NCI-60 screening: Log(RedIndex)” value ([1]; OVCAR-5 (OV) cell line) was 2.15, the GI50 ([1]; OVCAR-5, read-out: GI50) was 36 nM and the “NCI-60 screening: Log(GI50)” value ([1]; OVCAR-8 (OV) cell line) was -8.06. For the same molecule, the “NCI-60 screening: Log(RedIndex)” value ([1]; OVCAR-8 (OV) cell line) was 2.28, the GI50 ([1]; OVCAR-8, read-out: GI50) was 8.6 nM and the “NCI-60 screening: Log(GI50)” value ([1]; PC-3 (PR) cell line) was -7.61. For the same molecule, the “NCI-60 screening: Log(RedIndex)” value ([1]; PC-3 (PR) cell line) was 2.11, the GI50 ([1]; PC-3 (PR) cell line, read-out: NCI-60 screening: Raw GI50) was 25 nM and the GI50 ([1]; PC-3, read-out: GI50) was 25 nM. The GI50 ([1]; RPMI-8226, read-out: GI50) was 34 nM, the “NCI-60 screening: Log(GI50)” value ([1]; RXF 393 (RE) cell line) was -8.02 and the “NCI-60 screening: Log(RedIndex)” value ([1]; RXF 393 (RE) cell line) was 2.05. The GI50 ([1]; RXF 393 (RE) cell line, read-out: NCI-60 screening: Raw GI50) was 9.5 nM, the GI50 ([1]; RXF 393, read-out: GI50) was 9.5 nM and the GI50 ([1]; SF-268, read-out: GI50) was 15 nM. It also gave a GI50 ([1]; SF-295, read-out: GI50) of 9.7 nM, a GI50 ([1]; SF-539, read-out: GI50) of 10 nM and a GI50 ([1]; SK-MEL-5, read-out: GI50) of 13 nM. For the same molecule, the GI50 ([1]; SK-MEL-28, read-out: GI50) was 15 nM, the “NCI-60 screening: Log(GI50)” value ([1]; SK-OV-3 (OV) cell line) was -7.91 and the “NCI-60 screening: Log(RedIndex)” value ([1]; SK-OV-3 (OV) cell line) was 2.24. The GI50 ([1]; SK-OV-3 (OV) cell line, read-out: NCI-60 screening: Raw GI50) was 12 nM, the GI50 ([1]; SK-OV-3, read-out: GI50) was 12 nM and the “NCI-60 screening: Log(GI50)” value ([1]; SN12C (RE) cell line) was -7.77. For the same molecule, the “NCI-60 screening: Log(RedIndex)” value ([1]; SN12C (RE) cell line) was 1.85, the GI50 ([1]; SN12C, read-out: GI50) was 17 nM and the GI50 ([1]; SNB-19, read-out: GI50) was 16 nM. The GI50 ([1]; SR, read-out: GI50) was 4 nM, the GI50 ([1]; SW-620, read-out: GI50) was 58 nM and the GI50 ([1]; T-47D, read-out: GI50) was 50 nM. For the same molecule, the “NCI-60 screening: Log(GI50)” value ([1]; TK-10 (RE) cell line) was -6.9 and the “NCI-60 screening: Log(RedIndex)” value ([1]; TK-10 (RE) cell line) was 1.35.
